Assay results: patent US9624208B2, “Benzoxazolinone compounds with selective activity in voltage-gated sodium channels” (Merck Sharp & Dohme Corp., priority 2012, dated 2017)

Tests used:
human Nav1.5 = target: T1, human Nav1.5 (Homo sapiens, UniProt Q14524); experiment: PatchXpress sodium current measurement, inactivated state block, Nav1.5; assay type: cell-based; details: determined by PatchXpress measurement, HEK 293 cells
T1 construct: expressed in transfected cells
Procedure: (§1) Cell Based Assays for Nav 1.7 and Nav 1.5 Activity
(§2) Compounds were tested on human Nav1.7 and Nav1.5 channels stably expressed in HEK 293 cells.
(§3) Sodium Current Measurements on the PatchXpress 7000:
(§4) To measure inactivated state block of sodium channels, test compounds were characterized in an automated PatchXpress® assay (Molecular Devices) using a double-pulse protocol on human Nav1.7 and Nav1.5 channels stably expressed in HEK 293 cells. Cells were held at a potential 20 mV negative to the potential at which ˜50% of the channels are inactivated. A 8000 ms pre-pulse 7 mV positive to the potential at which ˜50% of the channels are inactivated was given followed by a hyperpolarizing 2 ms pulse to −120 mV and a 20 ms test pulse to −20 mV. The protocol was applied to cells in the absence, presence of compound and after washout. The temperature of PatchXpress® instruments was maintained at 22° C. The following recording solutions were used. Internal solution (mM): 30 CsCl, 5 HEPES, 10 EGTA, 120 CsF, 5 NaF, 2 MgCl2, pH 7.3 with CsOH. External solution (mM): 120 NMDG, 40 NaCl, 1 KCl, 0.5 MgCl2, 5 HEPES, 2.7 CaCl2, pH 7.5 with NMDG-OH. Estimated IC50 values were calculated based on at least two compound concentrations tested. For all electrophysiology experiments, offline analysis was used to correct for current rundown and to determine percent inhibition as a function of drug concentration. IC50 values were determined by fitting to the Hill equation.

human Nav1.7 = target: T2, human Nav1.7 (Homo sapiens, UniProt Q15858); experiment: PatchXpress sodium current measurement, inactivated state block, Nav1.7; assay type: cell-based; details: channels stably expressed in HEK 293 cells, double-pulse protocol, 22° C., read-out: potency for the Nav 1.7 sodium ion channel (1.7=)
T2 construct: expressed in transfected cells
Procedure: as §1, §2, §3, §4

T1 sequence (Q14524 whole entry): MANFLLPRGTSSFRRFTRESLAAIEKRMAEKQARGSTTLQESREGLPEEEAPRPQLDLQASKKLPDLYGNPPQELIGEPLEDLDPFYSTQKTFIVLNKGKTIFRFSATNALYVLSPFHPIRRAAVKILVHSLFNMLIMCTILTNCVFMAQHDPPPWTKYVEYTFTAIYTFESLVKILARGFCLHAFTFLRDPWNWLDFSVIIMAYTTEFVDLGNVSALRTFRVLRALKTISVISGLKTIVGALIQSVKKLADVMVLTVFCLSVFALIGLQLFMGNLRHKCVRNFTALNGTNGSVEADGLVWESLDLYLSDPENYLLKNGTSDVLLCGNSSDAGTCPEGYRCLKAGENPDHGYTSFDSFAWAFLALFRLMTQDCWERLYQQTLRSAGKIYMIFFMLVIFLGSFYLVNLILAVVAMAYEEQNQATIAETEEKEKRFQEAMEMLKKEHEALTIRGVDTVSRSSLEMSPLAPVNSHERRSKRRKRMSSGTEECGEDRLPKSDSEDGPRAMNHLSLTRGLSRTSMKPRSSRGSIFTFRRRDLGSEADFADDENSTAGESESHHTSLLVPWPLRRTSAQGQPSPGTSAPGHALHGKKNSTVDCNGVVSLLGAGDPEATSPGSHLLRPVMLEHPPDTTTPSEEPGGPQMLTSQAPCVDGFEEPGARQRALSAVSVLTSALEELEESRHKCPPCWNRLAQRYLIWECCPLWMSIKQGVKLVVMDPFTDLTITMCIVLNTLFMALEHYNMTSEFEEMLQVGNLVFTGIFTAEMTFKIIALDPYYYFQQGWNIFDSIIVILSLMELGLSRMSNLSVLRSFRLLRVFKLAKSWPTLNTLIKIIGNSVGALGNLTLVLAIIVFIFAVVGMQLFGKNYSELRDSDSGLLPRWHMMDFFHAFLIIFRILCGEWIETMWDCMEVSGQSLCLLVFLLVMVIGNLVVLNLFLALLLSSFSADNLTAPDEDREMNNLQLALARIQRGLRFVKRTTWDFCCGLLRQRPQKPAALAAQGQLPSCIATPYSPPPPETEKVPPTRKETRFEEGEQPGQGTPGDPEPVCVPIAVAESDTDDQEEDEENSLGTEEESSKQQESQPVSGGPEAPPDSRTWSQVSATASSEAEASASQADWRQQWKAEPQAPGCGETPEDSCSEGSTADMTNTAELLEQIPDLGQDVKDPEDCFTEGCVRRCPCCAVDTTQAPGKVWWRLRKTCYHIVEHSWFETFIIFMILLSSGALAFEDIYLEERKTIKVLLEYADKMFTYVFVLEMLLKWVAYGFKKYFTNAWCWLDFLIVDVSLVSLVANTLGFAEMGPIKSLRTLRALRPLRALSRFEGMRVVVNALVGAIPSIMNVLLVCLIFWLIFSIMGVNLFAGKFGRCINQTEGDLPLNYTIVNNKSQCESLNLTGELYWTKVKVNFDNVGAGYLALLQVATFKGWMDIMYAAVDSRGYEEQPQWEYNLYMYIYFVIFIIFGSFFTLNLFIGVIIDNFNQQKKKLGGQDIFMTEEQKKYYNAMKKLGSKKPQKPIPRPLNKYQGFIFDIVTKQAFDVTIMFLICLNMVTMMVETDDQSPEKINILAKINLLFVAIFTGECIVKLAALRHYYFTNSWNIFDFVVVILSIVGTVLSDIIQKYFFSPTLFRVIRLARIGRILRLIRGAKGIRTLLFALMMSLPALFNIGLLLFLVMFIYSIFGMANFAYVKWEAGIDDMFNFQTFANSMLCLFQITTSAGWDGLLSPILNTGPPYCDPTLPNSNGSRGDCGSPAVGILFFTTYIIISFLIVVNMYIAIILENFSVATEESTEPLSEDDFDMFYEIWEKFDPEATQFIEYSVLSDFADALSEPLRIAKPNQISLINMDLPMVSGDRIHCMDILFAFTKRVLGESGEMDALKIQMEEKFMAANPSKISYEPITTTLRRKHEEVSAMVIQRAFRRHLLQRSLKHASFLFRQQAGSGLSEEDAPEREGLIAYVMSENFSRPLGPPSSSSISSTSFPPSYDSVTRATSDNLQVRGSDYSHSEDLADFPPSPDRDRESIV
T2 sequence (Q15858 whole entry): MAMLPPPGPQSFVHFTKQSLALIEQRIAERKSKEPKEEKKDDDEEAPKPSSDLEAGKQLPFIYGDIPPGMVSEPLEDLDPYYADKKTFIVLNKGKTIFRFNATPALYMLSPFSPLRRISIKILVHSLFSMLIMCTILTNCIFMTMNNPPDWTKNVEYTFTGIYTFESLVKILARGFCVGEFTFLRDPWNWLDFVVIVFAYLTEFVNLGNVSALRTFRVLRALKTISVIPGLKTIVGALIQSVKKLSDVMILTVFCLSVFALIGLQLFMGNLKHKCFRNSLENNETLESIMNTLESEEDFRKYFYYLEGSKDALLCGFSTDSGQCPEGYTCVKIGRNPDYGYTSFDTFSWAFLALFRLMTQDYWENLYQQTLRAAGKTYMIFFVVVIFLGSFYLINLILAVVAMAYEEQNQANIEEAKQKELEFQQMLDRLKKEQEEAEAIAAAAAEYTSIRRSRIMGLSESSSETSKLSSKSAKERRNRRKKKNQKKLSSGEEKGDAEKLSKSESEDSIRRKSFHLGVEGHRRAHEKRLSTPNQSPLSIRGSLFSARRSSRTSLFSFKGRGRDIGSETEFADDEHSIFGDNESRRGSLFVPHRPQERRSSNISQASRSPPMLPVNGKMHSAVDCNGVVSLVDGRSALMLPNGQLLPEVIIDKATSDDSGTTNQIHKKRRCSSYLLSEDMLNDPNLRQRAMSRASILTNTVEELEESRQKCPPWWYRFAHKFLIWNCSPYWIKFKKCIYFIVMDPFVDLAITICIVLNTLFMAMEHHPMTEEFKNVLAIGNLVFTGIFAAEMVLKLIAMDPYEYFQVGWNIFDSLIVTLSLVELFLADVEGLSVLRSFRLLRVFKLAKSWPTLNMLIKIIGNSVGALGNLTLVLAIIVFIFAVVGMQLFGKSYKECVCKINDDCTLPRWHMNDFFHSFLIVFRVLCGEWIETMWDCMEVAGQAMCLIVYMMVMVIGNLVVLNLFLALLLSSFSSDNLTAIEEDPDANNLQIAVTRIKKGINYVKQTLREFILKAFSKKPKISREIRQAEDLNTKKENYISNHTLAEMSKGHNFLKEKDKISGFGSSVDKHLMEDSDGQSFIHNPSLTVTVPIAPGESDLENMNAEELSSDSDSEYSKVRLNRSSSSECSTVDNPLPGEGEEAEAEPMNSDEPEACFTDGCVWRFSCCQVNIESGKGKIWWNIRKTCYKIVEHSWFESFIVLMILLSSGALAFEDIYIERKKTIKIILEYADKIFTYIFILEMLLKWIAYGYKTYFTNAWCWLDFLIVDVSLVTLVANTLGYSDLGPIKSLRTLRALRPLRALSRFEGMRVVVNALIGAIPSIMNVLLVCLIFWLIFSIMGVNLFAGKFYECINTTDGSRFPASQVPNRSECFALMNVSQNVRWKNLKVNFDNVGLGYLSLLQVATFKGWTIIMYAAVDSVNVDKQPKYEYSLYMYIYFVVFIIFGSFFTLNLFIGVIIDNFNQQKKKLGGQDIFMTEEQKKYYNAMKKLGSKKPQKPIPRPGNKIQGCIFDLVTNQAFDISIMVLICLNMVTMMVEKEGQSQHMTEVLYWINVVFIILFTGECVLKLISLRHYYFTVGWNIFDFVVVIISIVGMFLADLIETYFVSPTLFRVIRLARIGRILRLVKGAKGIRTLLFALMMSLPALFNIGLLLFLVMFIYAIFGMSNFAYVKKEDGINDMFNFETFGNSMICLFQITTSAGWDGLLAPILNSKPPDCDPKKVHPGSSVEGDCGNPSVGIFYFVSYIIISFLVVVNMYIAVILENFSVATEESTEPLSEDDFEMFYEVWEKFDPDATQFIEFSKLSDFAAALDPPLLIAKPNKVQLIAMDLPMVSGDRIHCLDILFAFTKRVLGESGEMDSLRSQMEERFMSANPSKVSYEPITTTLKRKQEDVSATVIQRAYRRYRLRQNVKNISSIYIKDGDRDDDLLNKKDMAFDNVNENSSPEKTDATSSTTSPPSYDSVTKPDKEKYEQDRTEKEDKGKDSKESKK

Row | SMILES | ratio of Nav 1.5:Nav 1.7 potency (human Nav1.5) | IC50 (human Nav1.7) [nM]
1 | C[C@H](c1ccccc1C#CCN1CCCC1)n1c(=O)oc2cc(S(=O)(=O)Nc3cccc(F)n3)c(F)cc21 [Ex8-2, 5-fluoro-N-(6-fluoropyridin-2-yl)-2-oxo-3-{(1R)-1-[2-(3-pyrrolidin-1-ylprop-1-yn-1-yl)phenyl]ethyl}-2,3-dihydro-1,3-benzoxazole-6-sulfonamide] | 23 | 434
2 | C[C@H](c1ccccc1C#C[C@H]1CCCC[C@H]1N)n1c(=O)oc2cc(S(=O)(=O)Nc3cccc(F)n3)c(F)cc21 [Ex8-3, 3-[(1R)-1-(2-{[(1R,2R)-2-aminocyclohexyl]ethynyl}phenyl)ethyl]-5-fluoro-N-(6-fluoropyridin-2-yl)-2-oxo-2,3-dihydro-1,3-benzoxazole-6-sulfonamide] | 2000 | 14
3 | C[C@H](c1ccccc1C#CC(N)CO)n1c(=O)oc2cc(S(=O)(=O)Nc3cccc(F)n3)c(F)cc21 (stereo partly drawn) [Ex8-4, 3-{(1R)-1-[2-(3-amino-4-hydroxybut-1-yn-1-yl)phenyl]ethyl}-5-fluoro-N-(6-fluoropyridin-2-yl)-2-oxo-2,3-dihydro-1,3-benzoxazole-6-sulfonamide] | 822 | 9
4 | C[C@H](c1ccccc1C#CC1(N)CCCCC1)n1c(=O)oc2cc(S(=O)(=O)Nc3cccc(F)n3)c(F)cc21 [Ex8-6, 3-[(1R)-1-{2-[(1-aminocyclohexyl)ethynyl]phenyl}ethyl]-5-fluoro-N-(6-fluoropyridin-2-yl)-2-oxo-2,3-dihydro-1,3-benzoxazole-6-sulfonamide] | 95 | 49
5 | C[C@H](c1ccccc1C#CCC(C)(C)N)n1c(=O)oc2cc(S(=O)(=O)Nc3cccc(F)n3)c(F)cc21 [Ex8-7, 3-{(1R)-1-[2-(4-amino-4-methylpent-1-yn-1-yl)phenyl]ethyl}-5-fluoro-N-(6-fluoropyridin-2-yl)-2-oxo-2,3-dihydro-1,3-benzoxazole-6-sulfonamide] | > 131 | 108
6 | C[C@H](c1ccccc1C#CCN1CCC(O)C1)n1c(=O)oc2cc(S(=O)(=O)Nc3cccc(F)n3)c(F)cc21 (stereo partly drawn) [Ex8-8, 5-fluoro-N-(6-fluoropyridin-2-yl)-3-[(1R)-1-{2-[3-(3-hydroxypyrrolidin-1-yl)prop-1-yn-1-yl]phenyl}ethyl]-2-oxo-2,3-dihydro-1,3-benzoxazole-6-sulfonamide] | 75 | 299
7 | C[C@H](c1ccccc1C#CCN(C)C)n1c(=O)oc2cc(S(=O)(=O)Nc3cccc(F)n3)c(F)cc21 [Ex8-9, 3-[(1R)-1-{2-[3-(dimethylamino)prop-1-yn-1-yl]phenyl}ethyl]-5-fluoro-N-(6-fluoropyridin-2-yl)-2-oxo-2,3-dihydro-1,3-benzoxazole-6-sulfonamide] | 99 | 273
8 | C[C@H](c1ccccc1C#CCN1CCC1)n1c(=O)oc2cc(S(=O)(=O)Nc3cccc(F)n3)c(F)cc21 [Ex8-10, 3-{(1R)-1-[2-(3-azetidin-1-ylprop-1-yn-1-yl)phenyl]ethyl}-5-fluoro-N-(6-fluoropyridin-2-yl)-2-oxo-2,3-dihydro-1,3-benzoxazole-6-sulfonamide] | 127 | 236
9 | C[C@H](c1ccccc1CN)n1c(=O)oc2cc(S(=O)(=O)Nc3cccc(F)n3)c(F)cc21 [Ex9-1, (R)-3-(1-(2-(aminomethyl)phenyl)ethyl)-5-fluoro-N-(6-fluoropyridin-2-yl)-2-oxo-2,3-dihydrobenzo[d]oxazole-6-sulfonamide] | 1525 | 24
10 | C[C@H](c1ccccc1CN(C)C)n1c(=O)oc2cc(S(=O)(=O)Nc3cccc(F)n3)c(F)cc21 [Ex9-2, 3-[(1R)-1-{2-[(dimethylamino)methyl]phenyl}ethyl]-5-fluoro-N-(6-fluoropyridin-2-yl)-2-oxo-2,3-dihydro-1,3-benzoxazole-6-sulfonamide] | 84 | 124
11 | C[C@H](c1ccccc1CN1CCCCC1)n1c(=O)oc2cc(S(=O)(=O)Nc3cccc(F)n3)c(F)cc21 [Ex9-3, 5-fluoro-N-(6-fluoropyridin-2-yl)-2-oxo-3-{(1R)-1-[2-(piperidin-1-ylmethyl)phenyl]ethyl}-2,3-dihydro-1,3-benzoxazole-6-sulfonamide] | 68 | 300
12 | C[C@H](c1ccccc1C1CNC1)n1c(=O)oc2cc(S(=O)(=O)Nc3cccc(F)n3)c(F)cc21 [Ex10-3, (R)-3-(1-(2-(Azetidin-3-yl)phenyl)ethyl)-5-fluoro-N-(6-fluoropyridin-2-yl)-2-oxo-2,3-dihydrobenzo[d]oxazole-6-sulfonamide] | 1306 | 39
13 | C[C@H](c1ccccc1C1CN(S(C)(=O)=O)C1)n1c(=O)oc2cc(S(=O)(=O)Nc3cccc(F)n3)c(F)cc21 [Ex11-1] | 34 | 213
14 | C[C@H](c1ccccc1C1(O)CNC1)n1c(=O)oc2cc(S(=O)(=O)Nc3cccc(F)n3)c(F)cc21 [Ex12-4, (R)-5-Fluoro-N-(6-fluoropyridin-2-yl)-3-(1-(2-(3-hydroxyazetidin-3-yl)phenyl)ethyl)-2-oxo-2,3-dihydrobenzo[d]oxazole-6-sulfonamide] | 75 | 400
15 | C[C@H](c1ccccc1C1(F)CNC1)n1c(=O)oc2cc(S(=O)(=O)Nc3cccc(F)n3)c(F)cc21 [Ex12-6, (R)-5-Fluoro-3-(1-(2-(3-fluoroazetidin-3-yl)phenyl)ethyl)-N-(6-fluoropyridin-2-yl)-2-oxo-2,3-dihydrobenzo[d]oxazole-6-sulfonamide] | 648 | 46
16 | Cc1cccc([C@@H](C)n2c(=O)oc3cc(S(=O)(=O)Nc4cccc(F)n4)c(F)cc32)c1Br [Ex14-4, 3-[(1R)-1-(2-Bromo-3-methylphenyl)ethyl]-5-fluoro-N-(6-fluoropyridin-2-yl)-2-oxo-2,3-dihydro-1,3-benzoxazole-6-sulfonamide] | 27 | 596
17 | C[C@H](c1cccc2c1CNCC2)n1c(=O)oc2cc(S(=O)(=O)Nc3ccc(F)cn3)c(F)cc21.Cl [Ex15-5, (R)-5-Fluoro-N-(5-fluoropyridin-2-yl)-2-oxo-3-(1-(1,2,3,4-tetrahydroisoquinolin-8-yl)ethyl)-2,3-dihydrobenzo[d]oxazole-6-sulfonamide hydrochloride] | 108 | 535
18 | C[C@H](c1ccccc1C1CNC1)n1c(=O)oc2cc(S(=O)(=O)Nc3ccc(F)cn3)c(F)cc21 [Ex15-6, 3-[(1R)-1-(2-azetidin-3-ylphenyl)ethyl]-5-fluoro-N-(5-fluoropyridin-2-yl)-2-oxo-2,3-dihydro-1,3-benzoxazole-6-sulfonamide] | 207 | 145
19 | C[C@H](c1cccc2c1CNCC2)n1c(=O)oc2cc(S(=O)(=O)Nc3cc(Cl)ccn3)c(F)cc21 [Ex16-8, N-(4-Chloropyridin-2-yl)-5-fluoro-2-oxo-3-[(1R)-1-(1,2,3,4-tetrahydroisoquinolin-8-yl)ethyl]-2,3-dihydro-1,3-benzoxazole-6-sulfonamide] | 88 | 134
20 | Cc1cc2c(cc1S(=O)(=O)Nc1cccc(F)n1)oc(=O)n2[C@H](C)c1cccc2c1CNCC2 [Ex17-4, (R)—N-(6-Fluoropyridin-2-yl)-5-methyl-2-oxo-3-(1-(1,2,3,4-tetrahydroisoquinolin-8-yl)ethyl)-2,3-dihydrobenzo[d]oxazole-6-sulfonamide] | 200 | 34
21 | Cc1cc2c(cc1S(=O)(=O)Nc1cccc(F)n1)oc(=O)n2[C@H](C)c1ccccc1CN [Ex17-7, 3-{(1R)-1-[2-(aminomethyl)phenyl]ethyl}-N-(6-fluoropyridin-2-yl)-5-methyl-2-oxo-2,3-dihydro-1,3-benzoxazole-6-sulfonamide] | 147 | 49
22 | Cc1cc2c(cc1S(=O)(=O)Nc1cccc(F)n1)oc(=O)n2[C@H](C)c1ccccc1C1=CCNCC1 [Ex17-8, N-(6-fluoropyridin-2-yl)-5-methyl-2-oxo-3-{(1R)-1-[2-(1,2,3,6-tetrahydropyridin-4-yl)phenyl]ethyl}-2,3-dihydro-1,3-benzoxazole-6-sulfonamide] | 1452 | 6
23 | Cc1cc2c(cc1S(=O)(=O)Nc1cccc(F)n1)oc(=O)n2[C@H](C)c1ccccc1C1CCNCC1 [Ex18-3, (R)—N-(6-Fluoropyridin-2-yl)-5-methyl-2-oxo-3-(1-(2-(piperidin-4-yl)phenyl)ethyl)-2,3-dihydrobenzo[d]oxazole-6-sulfonamide] | 233 | 13
24 | Cc1cc2c(cc1S(=O)(=O)Nc1cccc(F)n1)oc(=O)n2[C@H](C)c1cccc(Br)c1 [Ex18-6, 3-[(1R)-1-(3-bromophenyl)ethyl]-N-(6-fluoropyridin-2-yl)-5-methyl-2-oxo-2,3-dihydro-1,3-benzoxazole-6-sulfonamide] | 30 | 57
